The values that follow come from PubChem BioAssay (NCI).

Several values for one entry are separate records, joined by “and”; a condition that tells them apart may be missing. Equal entries are not always repeated.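 Values below derive from 48-hour exposures of cells grown in 96-well plates, with endpoints linearly interpolated between the two concentrations bracketing the appropriate inhibition level. Here, GI50 denotes the concentration required for 50% inhibition of growth. At the TGI there is no net growth.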

Some test systems named below: M14 melanoma; SK-MEL-5 melanoma; EKVX NSCLC; UACC-62 melanoma; DU-145 prostate; HS 578T breast; MOLT-4 leukemia; SNB-75 CNS; CCRF-CEM leukemia; COLO 205 colon.
What all share (assay): DTP human tumour cell line panel, 48 h

Turning to `COc1ccc2nc3cc([N+](=O)[O-])ccc3c(NNc3ccccc3)c2c1`, the GI50 – broadly, the concentration that inhibits growth by half – is 24.2 µM in the test on M14 melanoma; 13.2 µM in the test on SK-MEL-5 melanoma; 5.93 µM in the test on UACC-62 melanoma; 19.7 µM in the test with DU-145 prostate; 12.5 µM with MOLT-4 leukemia; 15.6 µM in the test on SNB-75 CNS. Moreover, the GI50 was 10.9 µM in the test on CCRF-CEM leukemia and 17.1 µM in the test with COLO 205 colon. The TGI (as a rule, the concentration at which net growth stops) with M14 melanoma was 75.2 µM and > 100 µM; in the test on SK-MEL-5 melanoma, 27.3 µM and 40.7 µM; in the test on EKVX NSCLC it was > 100 µM and 71.8 µM; with UACC-62 melanoma it was 22.8 µM and 25.1 µM; in the test with DU-145 prostate, 77.8 µM and > 100 µM; in the test on HS 578T breast, greater than 100 µM. Further, the TGI in the test on MOLT-4 leukemia was 65.8 µM and 74.4 µM; with SNB-75 CNS, 35.7 µM and > 100 µM; in the test with CCRF-CEM leukemia, greater than 100 µM; in the test on COLO 205 colon, 37.5 µM and 29.5 µM.

As for `Cc1ccc(NC(=O)Nc2c(Cl)cccc2Cl)cn1`, the GI50 in the test on M14 melanoma is 12 µM; in the test on SK-MEL-5 melanoma, 5.06 µM; in the test on EKVX NSCLC it was 3.04 µM; in the test with UACC-62 melanoma, 5.76 µM; in the test with DU-145 prostate, 16.2 µM; with HS 578T breast, 1.94 µM. The GI50 in the test on MOLT-4 leukemia was 6.38 µM; with SNB-75 CNS it was 5.88 µM; with CCRF-CEM leukemia it was 5.79 µM; with COLO 205 colon it was 3.61 µM. Besides, the TGI was greater than 100 µM in the test on M14 melanoma; greater than 100 µM in the test on SK-MEL-5 melanoma; greater than 100 µM in the test on EKVX NSCLC; greater than 100 µM in the test on UACC-62 melanoma; 76.6 µM in the test with DU-145 prostate; 6.89 µM in the test with HS 578T breast. The TGI in the test with MOLT-4 leukemia is 32.4 µM; in the test with SNB-75 CNS it was greater than 100 µM; with CCRF-CEM leukemia, greater than 100 µM; with COLO 205 colon, 24.3 µM.

Consider `O=c1ccc(=O)n(-c2ccccc2)[nH]1`, for which the TGI in the test on M14 melanoma, with SK-MEL-5 melanoma, in the test with EKVX NSCLC, with UACC-62 melanoma, in the test with DU-145 prostate and in the test on HS 578T breast was greater than 100 µM in each case. Also, the TGI in the test on MOLT-4 leukemia, in the test on SNB-75 CNS, in the test with CCRF-CEM leukemia and in the test on COLO 205 colon was greater than 100 µM in each case.

For `C=C1C(=O)O[C@H]2[C@H]1CC/C(Cn1cc(-c3cccc(Cl)c3)nn1)=C\CC[C@@]1(C)O[C@@H]21`, the GI50 with M14 melanoma is 0.798 µM; with SK-MEL-5 melanoma it was 1.7 µM; in the test with EKVX NSCLC, 1.57 µM; with UACC-62 melanoma, 0.625 µM; in the test with DU-145 prostate, 1 µM; in the test on HS 578T breast it was 2.26 µM. Also, the GI50 was 0.31 µM in the test with MOLT-4 leukemia, 1.16 µM with SNB-75 CNS, 0.2 µM in the test on CCRF-CEM leukemia and 0.417 µM in the test with COLO 205 colon. For the same compound, the TGI in the test with M14 melanoma came out at 2.2 µM; in the test on SK-MEL-5 melanoma, 3.08 µM; in the test on EKVX NSCLC it was 2.92 µM; in the test on UACC-62 melanoma, 2.08 µM; in the test on DU-145 prostate it was 2.16 µM; in the test with HS 578T breast, 5.56 µM. The TGI turned out to be 1.25 µM in the test on MOLT-4 leukemia, 2.39 µM with SNB-75 CNS, 0.685 µM in the test with CCRF-CEM leukemia and 1.69 µM in the test with COLO 205 colon.

As for `COc1ccc2nc(-c3ccccc3)cc(Nc3cccc(C(C)=O)c3)c2c1`, the GI50 with M14 melanoma was 5.11 µM; with SK-MEL-5 melanoma it was 8.89 µM; in the test with EKVX NSCLC, 13.6 µM; with UACC-62 melanoma, 15.4 µM; in the test on DU-145 prostate, 13.2 µM; with HS 578T breast it was 10.5 µM. For the same compound, the GI50 in the test with MOLT-4 leukemia is 7.57 µM; in the test on SNB-75 CNS, 12.2 µM; in the test with CCRF-CEM leukemia, greater than 100 µM; in the test with COLO 205 colon it was 6.58 µM. Further, the TGI in the test on M14 melanoma was 20.2 µM; in the test with SK-MEL-5 melanoma, 24.3 µM; in the test on EKVX NSCLC, 34.3 µM; in the test with UACC-62 melanoma, 31.4 µM; in the test on DU-145 prostate, 32.3 µM; in the test on HS 578T breast, 35.6 µM. The TGI in the test on MOLT-4 leukemia was greater than 100 µM; in the test with SNB-75 CNS, 38.4 µM; in the test on CCRF-CEM leukemia, greater than 100 µM; in the test on COLO 205 colon, 41.1 µM.

Turning to `CN(C)Cc1ccc(C(C)(C)C)cc1-c1cc(C(C)(C)C)ccc1CN(C)C`, the TGI in the test with M14 melanoma was 41.6 µM; in the test on SK-MEL-5 melanoma, greater than 100 µM; in the test on EKVX NSCLC it was greater than 100 µM; in the test on UACC-62 melanoma, greater than 100 µM; in the test on DU-145 prostate, greater than 100 µM; with HS 578T breast it was greater than 100 µM. For the same compound, the concentration for total growth inhibition (TGI) in the test with MOLT-4 leukemia is greater than 100 µM; with SNB-75 CNS it was greater than 100 µM; with CCRF-CEM leukemia it was greater than 100 µM; in the test with COLO 205 colon, 37.9 µM.

Consider `COc1ccc(Cl)cc1Nc1nc(C(F)(F)F)ccc1C(=O)N/N=C/c1cccnc1`, for which the GI50 in the test with M14 melanoma was 2.42 µM; in the test with SK-MEL-5 melanoma, 2.64 µM; with EKVX NSCLC, 2.98 µM; with UACC-62 melanoma, 3.69 µM; in the test with DU-145 prostate, 7.22 µM; in the test on HS 578T breast it was 11.8 µM. Also, the GI50 in the test with MOLT-4 leukemia was 1.66 µM; in the test with SNB-75 CNS, 3.87 µM; in the test on CCRF-CEM leukemia, 0.624 µM; in the test on COLO 205 colon, 2.58 µM. The TGI was greater than 100 µM in the test on M14 melanoma; 65.3 µM with SK-MEL-5 melanoma; greater than 100 µM in the test with EKVX NSCLC; greater than 100 µM in the test with UACC-62 melanoma; greater than 100 µM with DU-145 prostate; greater than 100 µM with HS 578T breast. Further, the TGI with MOLT-4 leukemia is greater than 100 µM; in the test with SNB-75 CNS, 49.7 µM; in the test with CCRF-CEM leukemia, greater than 100 µM; in the test with COLO 205 colon, greater than 100 µM.

For the compound `O=C1c2cccnc2C(=O)c2c1c(C(=O)NCCn1ccnc1)c1ccccn21`, the GI50 with M14 melanoma was 1.91 µM; in the test with SK-MEL-5 melanoma, 1.06 µM; in the test with EKVX NSCLC it was 4.54 µM; in the test on UACC-62 melanoma, 1.84 µM; in the test with DU-145 prostate, 3.09 µM; with HS 578T breast, 5.26 µM. Moreover, the GI50 with MOLT-4 leukemia is 3.89 µM; with SNB-75 CNS, 3.24 µM; in the test on CCRF-CEM leukemia, 6.12 µM; in the test on COLO 205 colon it was 1.48 µM. In addition, the TGI with M14 melanoma is 6.13 µM; in the test with SK-MEL-5 melanoma, 2.26 µM; in the test with EKVX NSCLC, 18.6 µM; in the test with UACC-62 melanoma it was 4.4 µM; in the test with DU-145 prostate, 12.4 µM; with HS 578T breast, 38.7 µM. For the same compound, the TGI with MOLT-4 leukemia was 47.9 µM; in the test with SNB-75 CNS it was 16.8 µM; in the test on CCRF-CEM leukemia, greater than 100 µM; in the test with COLO 205 colon, 3.17 µM.
